Source: article PMC9675574 (JCI Insight, 2022)

Tested on: cerulein-induced pancreatitis in T7K24R mice
Experiment: Cerulein-induced pancreatitis in T7K24R mice
Type: in vivo, mouse
Details: single oral gavage 200 mg/kg; 15 treated mice
Protocol: Pancreatitis was induced in T7K24R mice with 8 hourly intraperitoneal injections of the secretagogue peptide cerulein used in a dose of 50 μg/kg. Cerulein (catalog number C9026, MilliporeSigma) was dissolved in sterile normal saline at 10 μg/mL concentration. Mice were sacrificed 1, 24, 48, 72, or 96 hours from the first cerulein injection, as indicated, and the pancreas and blood were harvested. Details of histological analysis and measurement of plasma amylase (4 μL assayed) were reported previously ([29]–[31]).
Control mice were given gavage of the vehicle solution (Captisol; see below) or regular chow.
Captisol (β-cyclodextrin sulfobutyl ethers, sodium salts, lot number NC-04A-180185) was obtained from Cydex Pharmaceuticals (through Thermo Fisher Scientific) and was dissolved in sterile normal saline (3.5 g in 10 mL). […] The mixture was then compressed into pellets using the barrel of a 10 mL plastic syringe and a plunger. The prodrug-containing pellets were allowed to dry at 24°C for 2 days and stored at 4°C until use.

In the case of [H]/N=C(/N)c1ccc(NCc2nc3cc(C(=O)N(CCC(=O)O)c4ccccn4)ccc3n2C)cc1 [dabigatran], the “share of mice with limited efficacy (less than 25% of normal acini preserved)” value is reported as 30%.
